Consider 1 compound from paper PMC6811774, “Potent, selective, and subunit‐dependent activation of TRPC5 channels by a xanthine derivative” (British Journal of Pharmacology, 2019).

The subject of one assay is TRPC5:C5. Also on record: method as in Rubaiy, Ludlow, Henrot, et al., 2017. The note with it: EA-mediated activation, 10 nM EA; ref Rubaiy, Ludlow, Henrot, et al., 2017; read-out: IC50, inhibition of TRPC5:C5; cited from earlier work.
Assay [1] deals with T1, TRPC5-SYFP2 (TRPC5:C5 channels) (Homo sapiens, UniProt Q9UL62).
T1 construct: expressed in transfected cells
T1 sequence (Q9UL62 1-973): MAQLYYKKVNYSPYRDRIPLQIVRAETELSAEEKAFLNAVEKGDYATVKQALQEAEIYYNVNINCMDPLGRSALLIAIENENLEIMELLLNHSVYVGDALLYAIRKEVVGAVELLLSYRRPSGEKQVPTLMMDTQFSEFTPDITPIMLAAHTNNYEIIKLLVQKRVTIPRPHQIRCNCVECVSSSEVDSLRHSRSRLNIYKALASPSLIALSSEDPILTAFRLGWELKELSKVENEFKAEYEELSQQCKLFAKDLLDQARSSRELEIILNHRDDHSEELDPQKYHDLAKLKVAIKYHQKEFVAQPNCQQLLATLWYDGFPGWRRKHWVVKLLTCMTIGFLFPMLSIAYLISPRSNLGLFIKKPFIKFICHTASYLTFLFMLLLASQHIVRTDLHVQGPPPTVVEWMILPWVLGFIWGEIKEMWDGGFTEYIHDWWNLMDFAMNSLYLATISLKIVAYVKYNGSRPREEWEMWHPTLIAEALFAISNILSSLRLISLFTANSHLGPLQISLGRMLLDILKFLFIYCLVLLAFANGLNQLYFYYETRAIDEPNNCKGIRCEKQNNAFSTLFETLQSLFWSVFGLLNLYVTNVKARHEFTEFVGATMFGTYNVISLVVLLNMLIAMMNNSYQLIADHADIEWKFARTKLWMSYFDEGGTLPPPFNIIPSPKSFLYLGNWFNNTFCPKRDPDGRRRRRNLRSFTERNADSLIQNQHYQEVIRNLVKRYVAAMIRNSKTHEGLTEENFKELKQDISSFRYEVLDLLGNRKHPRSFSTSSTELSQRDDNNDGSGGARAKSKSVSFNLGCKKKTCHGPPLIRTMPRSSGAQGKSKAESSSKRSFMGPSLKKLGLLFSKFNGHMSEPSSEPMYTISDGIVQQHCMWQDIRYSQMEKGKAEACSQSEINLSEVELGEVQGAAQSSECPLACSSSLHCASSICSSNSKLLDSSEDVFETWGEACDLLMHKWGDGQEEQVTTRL
As to the kind of experiment: [Ca2+]i measurement (Fura-2, FlexStation) in (Tet+) HEK T-REx cells expressing hTRPC5-SYFP2. In kind it is cell-based. An excerpt:
To facilitate cloning of TRPC5‐SYFP2 and TRPC4‐SYFP2, a pcDNA™4/TO expression vector (ThermoFisher Scientific, Waltham, MA, USA), into which a four amino acid linker (ASAS) flanked by AgeI and SacII restriction sites had been introduced between EcoRI and XhoI restriction sites, was used (Naylor et al., 2016). Human TRPC4β was inserted between BamHI and AgeI restriction sites as described previously (Ludlow et al., 2017). Human TRPC5 (forward primer: 5′ GCTTGGTACCGCCACCATG 3′ and reverse primer: 5′ […] 3′) was inserted upstream of the linker between KpnI and AgeI restriction sites using hTRPC5/pcDNA™4/TO (Zeng et al., 2004) as a PCR template. Both constructs contained an N‐terminal Kozak sequence. SYFP2 was inserted downstream of the linker between SacII and XbaI restriction sites using pSYFP2‐C1 as a PCR template (forward primer, 5′ […] 3′; reverse primer, 5′ […] 3′). pSYFP2‐C1 was a gift from Dorus Gadella (Addgene plasmid #22878; http://n2t.net/addgene:22878; RRID:Addgene_22878; Kremers, Goedhart, van Munster, & Gadella, 2006). Plasmids were sequenced to verify identity.
HEK T‐REx™ cell line was transfected with TRPC5‐SYFP2 or TRPC4‐SYFP2 using FuGENE® HD transfection reagent. After 48 hr, cells were put under antibiotic selection using 400 μg·ml^−1 zeocin and 10 μg·ml^−1 blasticidin S (Invivogen, San Diego, California, USA). Medium changes were carried out regularly to remove dead cells. HEK T‐REx cells expressing tetracycline‐inducible human TRPC5, TRPC4–C1, and TRPC5–C1 were created as described previously (Akbulut et al., 2015; Ludlow et al., 2017; Rubaiy, Ludlow, Henrot, et al., 2017). TRPC5–C1 and TRPC4–C1 concatemers allow expression of functional channels with defined 2:2 stoichiometry that display ion permeability and current–voltage relationships distinct from those of homomeric TRPC4:C4 or TRPC5:C5 channels and consistent with those obtained upon co‐expression of TRPC1 with TRPC4 or TRPC5 (Ludlow et al., 2017; Rubaiy, Ludlow, Bon, & Beech, 2017; Rubaiy, Ludlow, Henrot, et al., 2017). Cells were cultured in DMEM‐F12 GlutaMAX (Invitrogen, Paisley, UK) containing 10% FBS (Sigma‐Aldrich, Gillingham, UK), with the addition of blasticidin (10 μg·ml^−1) and zeocin (400 μg·ml^−1) to maintain the stable incorporation of the tetracycline repressor and the channel of interest, respectively. Expression of proteins was induced by the addition of tetracycline (1 μg·ml^−1, 24 hr). Cells were maintained in a humidified incubator with 5% CO2 at 37°C. HEK 293 cells stably expressing tetracycline‐regulated human http://www.guidetopharmacology.org/GRAC/ObjectDisplayForward?objectId=494 were prepared similarly and have also been described previously (McHugh, Flemming, Xu, Perraud, & Beech, 2003). For experiments using transient co‐expression of TRPC1 and TRPC5, HEK cells at 40–60% confluency were transfected with pIRES2‐AcGFP1 and pIRES2‐DsRed‐Express2 plasmids containing human TRPC1 and TRPC5, respectively, using Lipofectamine 3000 (ThermoFisher Scientific, Yokohama, Japan). All experiments using transient expression were performed within 48 hr after transfection. A498 cells were cultured in Minimum Essential Medium containing Earle's salts (ThermoFisher Scientific, Loughborough, UK), supplemented with 10% FBS and penicillin–streptomycin (100 units per ml^−1, 100 μg·ml^−1; ThermoFisher Scientific, Loughborough, UK). CHO cells stably expressing http://www.guidetopharmacology.org/GRAC/ObjectDisplayForward?objectId=510 were maintained in Ham's Nutrient Mixture F12 (ThermoFisher Scientific, Loughborough, UK) supplemented with 10% FBS, penicillin–streptomycin, and 1 mg·ml^−1 G418 (InvivoGen, San Diego, California, USA). For experiments using hTRPC3 and hTRPC6, WT HEK 293 cells were transfected with hTRPC3 (Naylor et al., 2016) or hTRPC6 (cloned into pcDNA3) using jetPRIME® transfection reagent (VWR, Lutterworth, UK). Cells were assayed 48 hr after transfection. […]

Where “and” joins values, the source holds several entries; their conditions need not be identical. Equal values may be shown once.

In the case of `Cn1c(=O)n(CCCO)c(=O)c2c1nc(Oc1cccc(OC(F)(F)F)c1)n2Cc1ccc(Cl)cc1` [Pico145, reference compound], in the assay with TRPC5:C5, the half-inhibitory concentration (IC50) (in general, the point on the concentration scale where inhibition reaches its midpoint) is 1 nM and ~1 nM. For the same compound, in assay [1], it took 2 nM to reach half-maximal inhibition (IC50). For the same compound, in assay [1] (100 nM AM237), the “Concentration giving maximal inhibition of AM237 response” value amounted to 10 nM and the “Hill slope, inhibition of AM237 response” value is given as “–1.3”. For the same compound, the “Mode of inhibition of AM237-mediated TRPC5:C5 activation” value in assay [1] (surmountable, parallel rightward shifts, confirmed by patch-clamp) is “competitive antagonist”.
